We go through 22 compounds from patent US7928140B2, “Benzothiazole PI3 kinase modulators for cancer treatment” (Amgen Inc., priority 2007, dated 2011).

Where two headings read alike, the source gives them in different places.

One experiment addresses T1, PI3K α (Homo sapiens, UniProt P42336).
T1 construct: Full length p110 subunits of PI3K α, β and δ, N-terminally labeled with polyHis tag; polyHis (N); made in house; host or cells: Sf9 insect cells (baculovirus)
Description: In vitro PI3 kinase enzyme assay (alpha), ATP loss, bioluminescence.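 Note: purified p110α/p85 heterodimer acting on PtdIns(4,5)P2 at room temperature, remaining ATP read by luminescence, inhibition scaled between compound-free wells with and without enzyme.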 The class given is biochemical. Conditions: read-out: PI3Kα ATP loss IC50.

The target of a further experiment is T2, PI3K β (Homo sapiens, UniProt P42338).
T2 construct: Full length p110 subunits of PI3K α, β and δ, N-terminally labeled with polyHis tag; polyHis (N); made in house; host or cells: Sf9 insect cells (baculovirus)
T2 sequence (P42338 whole entry): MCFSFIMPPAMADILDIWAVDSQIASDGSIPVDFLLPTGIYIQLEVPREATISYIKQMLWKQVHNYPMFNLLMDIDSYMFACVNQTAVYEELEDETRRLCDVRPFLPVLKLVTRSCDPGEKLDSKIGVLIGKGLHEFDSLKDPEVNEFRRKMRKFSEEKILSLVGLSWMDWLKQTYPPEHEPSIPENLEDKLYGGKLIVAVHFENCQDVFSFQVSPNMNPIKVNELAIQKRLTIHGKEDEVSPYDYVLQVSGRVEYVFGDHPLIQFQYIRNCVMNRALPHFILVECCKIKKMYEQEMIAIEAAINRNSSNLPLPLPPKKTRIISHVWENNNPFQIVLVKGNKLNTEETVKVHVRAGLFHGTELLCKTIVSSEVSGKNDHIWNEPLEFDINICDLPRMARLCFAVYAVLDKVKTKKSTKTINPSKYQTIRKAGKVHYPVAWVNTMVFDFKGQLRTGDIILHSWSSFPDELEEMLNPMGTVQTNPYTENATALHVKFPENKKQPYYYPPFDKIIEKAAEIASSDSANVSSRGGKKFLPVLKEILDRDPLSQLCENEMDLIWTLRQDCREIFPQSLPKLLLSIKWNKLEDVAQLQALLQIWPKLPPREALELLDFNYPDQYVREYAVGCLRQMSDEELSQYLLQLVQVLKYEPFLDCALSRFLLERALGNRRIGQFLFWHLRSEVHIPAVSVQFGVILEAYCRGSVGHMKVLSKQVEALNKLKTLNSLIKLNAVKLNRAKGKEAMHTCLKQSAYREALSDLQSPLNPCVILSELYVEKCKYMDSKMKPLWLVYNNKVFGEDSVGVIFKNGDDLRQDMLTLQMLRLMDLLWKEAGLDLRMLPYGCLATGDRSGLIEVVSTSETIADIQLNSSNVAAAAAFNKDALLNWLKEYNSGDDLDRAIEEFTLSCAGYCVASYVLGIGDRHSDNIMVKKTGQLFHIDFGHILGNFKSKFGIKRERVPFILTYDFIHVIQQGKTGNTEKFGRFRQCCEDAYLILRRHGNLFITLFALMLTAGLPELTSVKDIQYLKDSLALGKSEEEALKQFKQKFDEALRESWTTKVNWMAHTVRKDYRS
T2 sequence (P27986 whole entry partner): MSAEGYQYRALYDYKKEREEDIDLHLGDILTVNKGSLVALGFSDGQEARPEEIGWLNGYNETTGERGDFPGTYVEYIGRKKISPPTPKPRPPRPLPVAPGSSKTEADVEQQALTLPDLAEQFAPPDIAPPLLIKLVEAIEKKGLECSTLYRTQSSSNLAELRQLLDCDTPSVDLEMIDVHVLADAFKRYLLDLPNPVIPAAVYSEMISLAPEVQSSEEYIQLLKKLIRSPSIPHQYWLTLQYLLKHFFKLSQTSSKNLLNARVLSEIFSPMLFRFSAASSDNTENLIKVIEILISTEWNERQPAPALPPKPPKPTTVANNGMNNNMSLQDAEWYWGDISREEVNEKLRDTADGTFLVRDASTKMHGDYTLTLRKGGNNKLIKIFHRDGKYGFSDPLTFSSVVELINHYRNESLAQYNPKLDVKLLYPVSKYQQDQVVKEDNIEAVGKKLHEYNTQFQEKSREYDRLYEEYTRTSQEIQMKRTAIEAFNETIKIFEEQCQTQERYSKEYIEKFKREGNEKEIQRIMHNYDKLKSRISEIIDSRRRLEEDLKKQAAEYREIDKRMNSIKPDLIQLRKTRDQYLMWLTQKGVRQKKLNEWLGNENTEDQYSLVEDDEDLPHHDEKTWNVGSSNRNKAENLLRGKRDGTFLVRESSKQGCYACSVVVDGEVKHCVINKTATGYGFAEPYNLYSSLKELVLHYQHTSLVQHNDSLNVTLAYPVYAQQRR
Put plainly: In vitro PI3 kinase enzyme assay (beta), ATP loss, bioluminescence.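 Note: purified p110β/p85 heterodimer with PtdIns(4,5)P2 as acceptor, incubated at room temperature, leftover ATP read by luminescence, inhibition scaled to compound-free wells with and without enzyme.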 The following applies: read-out: PI3Kβ ATP loss IC50. The experiment is classed as biochemical.

In experiment [1] the test system is phosphorylation of Serine 473 in Akt, HCT 116 human colon carcinoma cells. Put plainly: Cell-based phospho-AKT Ser473 assay (MSD sandwich immunoassay, IGF-1 stimulated). Put shortly: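 HCT116 cells, 16,000/well and plated overnight, were pre-treated with serially diluted compound for 2 h at 37 °C, then stimulated with IGF-1 at 100 ng/ml for 15 min. Lysates were assayed for Akt pSer473 by MSD sandwich electrochemiluminescence, and IC50 was derived from dose-response data.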

[2] abbreviates: Homo sapiens, HCT-116, HCT 116 cells, read-out: HCT 116 pAKT IC50.

T1 sequence (P42336 whole entry, species assumed): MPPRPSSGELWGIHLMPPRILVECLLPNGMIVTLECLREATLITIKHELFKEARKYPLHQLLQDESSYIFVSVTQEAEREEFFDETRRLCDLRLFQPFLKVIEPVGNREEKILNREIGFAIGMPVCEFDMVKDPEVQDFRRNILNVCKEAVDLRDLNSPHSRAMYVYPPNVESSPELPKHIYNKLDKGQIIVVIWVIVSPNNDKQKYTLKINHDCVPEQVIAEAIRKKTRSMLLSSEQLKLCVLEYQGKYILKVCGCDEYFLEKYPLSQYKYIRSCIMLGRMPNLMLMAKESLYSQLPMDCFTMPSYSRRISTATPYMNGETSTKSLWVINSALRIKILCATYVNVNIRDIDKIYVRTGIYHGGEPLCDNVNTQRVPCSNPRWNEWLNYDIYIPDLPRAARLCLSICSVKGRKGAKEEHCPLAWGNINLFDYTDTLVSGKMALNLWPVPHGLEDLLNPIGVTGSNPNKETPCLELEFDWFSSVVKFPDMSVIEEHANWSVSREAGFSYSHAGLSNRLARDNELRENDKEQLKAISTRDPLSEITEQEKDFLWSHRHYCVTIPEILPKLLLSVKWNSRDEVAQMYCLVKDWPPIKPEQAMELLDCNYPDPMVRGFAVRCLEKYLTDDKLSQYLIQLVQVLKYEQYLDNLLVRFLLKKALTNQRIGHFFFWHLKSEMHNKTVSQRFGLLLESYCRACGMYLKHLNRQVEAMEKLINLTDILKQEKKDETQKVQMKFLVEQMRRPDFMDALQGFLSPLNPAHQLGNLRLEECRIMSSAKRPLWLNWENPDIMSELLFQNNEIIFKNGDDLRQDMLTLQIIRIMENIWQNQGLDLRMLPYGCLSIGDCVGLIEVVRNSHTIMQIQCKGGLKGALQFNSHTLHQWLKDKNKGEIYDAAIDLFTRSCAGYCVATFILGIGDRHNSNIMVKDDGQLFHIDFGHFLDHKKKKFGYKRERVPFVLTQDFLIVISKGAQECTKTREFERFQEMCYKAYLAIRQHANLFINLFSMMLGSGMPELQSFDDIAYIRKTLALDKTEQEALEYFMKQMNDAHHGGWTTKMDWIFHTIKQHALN
T1 sequence (P27986 whole entry partner, species assumed): as the sequence (P27986 whole entry partner) above
Description for PI3K α: Full length p110 subunits of PI3K α, β and δ, N-terminally labeled with polyHis tag, were co-expressed with p85 in baculovirus expression vectors in sf9 insect cells. P110/p85 heterodimers were purified by sequential Ni-NTA, Q-HP, and Superdex-100 chromatography. Purified α, β and δ isozymes were stored at −20° C. in 20 mM Tris, pH 8, 0.2M NaCl, 50% glycerol, 5 mM DTT, 2 mM Na cholate.
PI3K enzyme assays (alpha, beta, delta and gamma) were performed in 25 mL with the above final concentrations of components in white polypropylene plates (Costar catalogue #3355). Phosphatidyl inositol phosphoacceptor, PtdIns(4,5)P2 (eg. P4508) was obtained from Echelon Biosciences. The ATPase activity of the alpha and gamma isozymes was not greatly stimulated by PtdIns(4,5)P2 under these conditions and was therefore omitted from the assay of these isozymes. Test compounds were dissolved in DMSO and diluted with three-fold serial dilutions. The compound in DMSO (1 μL) was added per test well, and the inhibition relative to reactions containing no compound, with and without enzyme was determined. After assay incubation at RT, the reaction was stopped and residual ATP determined by addition of an equal volume of a commercial ATP bioluminescence kit (Perkin Elmer EasyLite) according to the manufacturer's instructions, and detected using an Analyst GT luminometer.

Take `CC(=O)Nc1nc2ccc(-c3cncc(NS(=O)(=O)c4ccc(C(C)(C)C)cc4)c3)cc2s1` [Example 201, N-(6-(5-(4-tert-butylphenylsulfonamido)pyridin-3-yl)benzo[d]thiazol-2-yl)acetamide]: the half-inhibitory concentration (IC50) at PI3K α came to 6.5 nM; at PI3K β, 11.1 nM; in experiment [1] (setting [2]) it was 117 nM.
For `COc1ccc(S(=O)(=O)Nc2nccc(-c3cc(F)c4nc(NC(C)=O)sc4c3)n2)cc1` [Example 131, N-(4-fluoro-6-(2-(((4-methoxyphenyl)sulfonyl)amino)-4-pyrimidinyl)-1,3-benzothiazol-2-yl)acetamide] the same measures were 41.3 nM, 126 nM and 1800 nM.
For `Nc1nc2ccc(-c3cnc(Cl)c(NS(=O)(=O)c4cccc(OC(F)F)c4)c3)cc2s1` [Example 307, N-(5-(2-amino-1,3-benzothiazol-6-yl)-2-chloro-3-pyridinyl)-3-(difluoromethoxy)benzenesulfonamide] the same measures were 6.7 nM, 17.3 nM and 115 nM.
With `COc1ncc(-c2ccc3nc(NC(C)=O)sc3c2)cc1N(C)C` [Example 124, N-(6-(5-(dimethylamino)-6-methoxy-3-pyridinyl)-1,3-benzothiazol-2-yl)acetamide], the IC50 is 24.7 nM at PI3K α, 90.8 nM on PI3K β and 66.6 nM in experiment [1] (setting [2]).
For `CC(=O)Nc1nc2ccc(-c3cnc(Cl)c(NS(=O)(=O)N4CCCCC4)c3)cc2s1` [Example 316, N-(6-(6-chloro-5-((1-piperidinylsulfonyl)amino)-3-pyridinyl)-1,3-benzothiazol-2-yl)acetamide] the same measures were 10.3 nM, 35.8 nM and 7 nM.
For the compound `CC(=O)Nc1nc2ccc(-c3cccc(N(C)S(=O)(=O)c4cccc(C)c4)n3)cc2s1` [Example 225, N-(6-(6-(N,3-dimethylphenylsulfonamido)pyridin-2-yl)benzo[d]thiazol-2-yl)acetamide], the IC50 on PI3K α stood at 64.7 nM; at PI3K β, 294 nM; in experiment [1] (setting [2]), 244 nM.
For `CC(=O)Nc1nc2ccc(-c3cnc(Cl)c(NS(=O)(=O)c4ccc(C(C)(C)O)cc4)c3)cc2s1` [Example 161, N-(6-(6-chloro-5-(4-(2-hydroxypropan-2-yl)phenylsulfonamido)pyridin-3-yl)benzo[d]thiazol-2-yl)acetamide] the same measures were 13.7 nM, 44.6 nM and 4.1 nM.
For `CC(=O)Nc1nc2ccc(-c3ccnc(OCc4cccc(C)c4)n3)cc2s1` [Example 107, N-(6-(2-((3-methylbenzyl)oxy)-4-pyrimidinyl)-1,3-benzothiazol-2-yl)acetamide] the same measures were 181 nM, 836 nM and 1210 nM.
`CC(=O)Nc1nc2ccc(-c3ccnc(OCCc4ccccc4)n3)cc2s1` [Example 7, N-(6-(2-(2-phenylethoxy)-4-pyrimidinyl)-1,3-benzothiazol-2-yl)acetamide]: the IC50 was 226 nM at PI3K α; 2610 nM at PI3K β; above 25000 nM in experiment [1] (Homo sapiens, HCT-116, read-out: HCT 116 pAKT IC50).
As for `CC(=O)Nc1nc2ccc(-c3cncc(Sc4ccccc4F)n3)cc2s1` [Example 130, N-(6-(6-((2-fluorophenyl)sulfanyl)-2-pyrazinyl)-1,3-benzothiazol-2-yl)acetamide], the IC50 on PI3K α was 39 nM; on PI3K β, 65 nM; in experiment [1] (setting [2]), 442 nM.
For `CC(=O)Nc1nc2ccc(-c3ccnc(Sc4ccccc4Br)n3)cc2s1` [Example 134, N-(6-(2-((2-bromophenyl)sulfanyl)-4-pyrimidinyl)-1,3-benzothiazol-2-yl)acetamide] the same measures were 47 nM, 668 nM and 1220 nM.
For `CC(=O)Nc1nc2c(F)cc(-c3cccc(S(=O)(=O)c4ccccc4F)n3)cc2s1` [Example 137, N-(4-fluoro-6-(6-((2-fluorophenyl)sulfonyl)-2-pyridinyl)-1,3-benzothiazol-2-yl)acetamide] the same measures were 65 nM, 1140 nM and 901 nM.
Turning to `CC(=O)Nc1nc2ccc(-c3cnc(Cl)c(NS(=O)(=O)c4ccc(C(C)O)cc4)c3)cc2s1` (single isomer, unassigned) [Example 258], the 50% inhibitory concentration (IC50) came out at 7.6 nM at PI3K α; 11.4 nM on PI3K β; 48.8 nM in experiment [1] (HCT 116 cells, read-out: HCT 116 pAKT IC50).
As to `CCOc1cc(-c2ccc3nc(NC(C)=O)sc3c2)cnc1Cl` [Example 239, N-(6-(6-chloro-5-ethoxypyridin-3-yl)benzo[d]thiazol-2-yl)acetamide], the figures for the IC50 (on PI3K α; on PI3K β; in experiment [1] (setting [2])) were 53.8 nM, 3790 nM and 2960 nM, respectively.
On the same counts, the results for `CC(=O)Nc1nc2ccc(-c3cnc(Cl)c(N(C)C)c3)cc2s1` [Example 269, N-(6-(6-Chloro-5-(dimethylamino)pyridin-3-yl)benzo[d]thiazol-2-yl)acetamide] are 19.9 nM, 221 nM and 56.7 nM.
For `Nc1nc2ccc(-c3cnc(Cl)c(NS(=O)(=O)c4ccc(Cl)cc4F)c3)cc2s1` [Example 313, N-(5-(2-amino-1,3-benzothiazol-6-yl)-2-chloro-3-pyridinyl)-4-chloro-2-fluorobenzenesulfonamide] the same measures were 13.6 nM, 27.9 nM and 424 nM.
For `CC(=O)Nc1nc2ccc(-c3ccnc(OCCCc4ccncc4)n3)cc2s1` [Example 44, N-(6-(2-(3-(4-pyridinyl)propoxy)-4-pyrimidinyl)-1,3-benzothiazol-2-yl)acetamide], the half-inhibitory concentration (IC50) worked out at 97.9 nM at PI3K α, 2730 nM at PI3K β and 577 nM in experiment [1] (setting [2]).
Consider `CC(=O)Nc1nc2ccc(-c3cncc(F)c3)cc2s1` [Example 289, N-(6-(5-Fluoropyridin-3-yl)benzo[d]thiazol-2-yl)acetamide], for which the results for the IC50 (on PI3K α; on PI3K β; in experiment [1] (setting [2])) were 96.3 nM, 3210 nM and 450 nM, respectively.
On the same counts, the results for `CC(=O)Nc1nc2ccc(-c3ccnc(OCCCn4ccnn4)n3)cc2s1` [Example 20, N-(6-(2-(3-(1H-1,2,3-triazol-1-yl)propoxy)-4-pyrimidinyl)-1,3-benzothiazol-2-yl)acetamide] are 266 nM, 5240 nM and 1930 nM.
On the same counts, the results for `Cc1ccc(S(=O)(=O)Nc2nnc(-c3ccc4nc(NC(=O)OC(C)(C)C)sc4c3)o2)cc1` [Example 166, tert-Butyl 6-(5-(4-methylphenylsulfonamido)-1,3,4-oxadiazol-2-yl)benzo[d]thiazol-2-ylcarbamate] are 336 nM, 2200 nM and 239 nM.
Turning to `CC(=O)Nc1nc2ccc(-c3ccnc(N(C)S(=O)(=O)c4ccc(C)cc4C)n3)cc2s1` [Example 212, N-(6-(2-(N,2,4-trimethylphenylsulfonamido)pyrimidin-4-yl)benzo[d]thiazol-2-yl)acetamide], the IC50 at PI3K α amounted to 72.2 nM; at PI3K β it was 60.3 nM; in experiment [1] (setting [2]) it was 237 nM.
Consider `CC(=O)Nc1nc2ccc(-c3cnc(C)c(NS(=O)(=O)c4cccc(OC(F)F)c4)c3)cc2s1` [Example 115, N-(6-(5-(((3-(difluoromethoxy)phenyl)sulfonyl)amino)-6-methyl-3-pyridinyl)-1,3-benzothiazol-2-yl)acetamide], for which the figures for the IC50 (at PI3K α; on PI3K β; in experiment [1] (setting [2])) were 7.1 nM, 15 nM and 30.7 nM, respectively.

One may read the IC50 as the concentration that inhibits the measured activity by half.
